According to PMC5917010, “Structural basis for GPR40 allosteric agonism and incretin stimulation” (Nature Communications, 2018):

What was measured:
GPR40 KO mice = experiment: OGTT in GPR40 KO mice; assay type: in vivo, mouse; settings: high dose of compound 1
Protocol: Eight to thirteen week old male C57BL/6 or KO mice were used. The day before the study, at 1600 hours, animals were transferred into clean cages and food was removed. The following morning (~0800 hours), mice were randomized by block randomization to treatment groups (N = 5–7 per group) so each group had similar mean and standard deviation of body weight and blood glucose. […] Animals were dosed with vehicle (0.5% MC/0.25% Tween-80) or the test article by oral gavage. Group allocations were not blinded from the experimenters who collected the data. After 60 min compound treatment animals were then given an oral gavage of glucose (2 g/kg). At 0, 15, 30, 60, and 120 min post oral glucose, two glucose readings via glucometers were obtained. The average of two glucose readings was reported at each time point. Data were expressed as mean±standard error (s.e.m.). Blood glucose values were analyzed using ANOVA with repeated measures. Cook’s distance was also calculated from linear regression. All animals were included in the analysis with their individual averaged Cook’s distance < 1. Dunnett’s comparison was performed at each time point by R program. Significance is denoted at p < 0.05.

Human GPR120 [1] = biological target: T1, Human GPR120 (Homo sapiens, UniProt Q5NUL3); experiment: Human GPR120 Calcium (FLIPR); assay type: cell-based; settings: Supplementary Table 1
T1 sequence (Q5NUL3 1-361): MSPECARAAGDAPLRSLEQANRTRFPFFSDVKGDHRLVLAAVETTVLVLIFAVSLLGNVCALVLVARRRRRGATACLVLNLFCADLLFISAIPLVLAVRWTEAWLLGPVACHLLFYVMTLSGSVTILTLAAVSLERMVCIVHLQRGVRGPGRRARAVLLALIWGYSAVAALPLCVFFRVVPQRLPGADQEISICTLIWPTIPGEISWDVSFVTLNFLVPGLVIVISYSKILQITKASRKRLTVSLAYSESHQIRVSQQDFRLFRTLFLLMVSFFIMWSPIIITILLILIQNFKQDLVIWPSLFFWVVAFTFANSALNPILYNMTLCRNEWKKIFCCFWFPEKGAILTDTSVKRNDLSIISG

human GPR40 [2] = biological target: T2, human GPR40 (Homo sapiens, UniProt O14842); experiment: Human GPR40 Calcium (Supplementary Table 1); assay type: cell-based
T2 construct: HEK293 cells stably overexpressing full length human GPR40; expressed in transfected cells
T2 sequence (O14842 whole entry): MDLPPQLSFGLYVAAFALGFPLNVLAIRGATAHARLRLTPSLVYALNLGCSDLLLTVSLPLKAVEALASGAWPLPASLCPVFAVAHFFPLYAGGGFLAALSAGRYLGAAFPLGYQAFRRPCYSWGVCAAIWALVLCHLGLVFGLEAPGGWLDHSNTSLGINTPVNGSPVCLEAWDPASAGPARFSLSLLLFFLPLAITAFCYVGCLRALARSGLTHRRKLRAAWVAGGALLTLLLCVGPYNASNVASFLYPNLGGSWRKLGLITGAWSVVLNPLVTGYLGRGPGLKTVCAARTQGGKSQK

human GPR40 (A2 site) = biological target: T3, human GPR40 (A2 site) (Homo sapiens, UniProt O14842); experiment: A2 site radioligand binding with [3H]-AM-1638; settings: Supplementary Table 1; read-out: Human GPR40 Binding to A2 Ki
T3 construct: full length recombinant human GPR40 (GPR40) cDNA; expressed in transfected cells; host or cells: HEK 293, stably transfected; crude cell surface membranes
T3 sequence (O14842 whole entry): as above
Protocol: (§1) Crude cell surface membranes were prepared from human embryonic kidney 293 (HEK 293) cells stably transfected (for the wild type) or transiently transfected (for the mutants and corresponding wild type) with full length recombinant human GPR40 (GPR40) cDNA, using differential centrifugation methods.
A2 Site Binding. 10 µL of compound diluted in 100% DMSO and 90 µL of Assay Buffer (50 mM Tris-HCl, pH 7.5, 10 mM CaCl2, 10 mM MgCl2, 0.1% w/v Bacitracin, 2.5% w/v dextran charcoal-treated FBS) were added to a deep 96-well polypropylene assay plate (Beckman Coulter). Two hundred μl of [^3H]-AM-1638 (84 Ci/mmol, Quotient Bioresearch Radiochemicals, Ltd.; 0.5 nM final concentration) and 200 µL of GPR40 membranes (5 µg/well), both diluted in Assay Buffer, were added to the assay plate, followed by a 1 min shake and a 1 h incubation at room temperature (22 °C).
(§2) Assays were terminated by filtration through GF/C glass fiber filtermats (Perkin Elmer) presoaked in 50 mM Tris–HCl, pH 7.5, using a Mach III cell harvester (TomTec). Filtermats were washed two times with 5 mL of ice-cold 50 mM Tris–HCl, pH 7.5 buffer, dried 1 h in a convection oven at 60 °C and embedded with Meltilex A solid scintillant (Perkin Elmer). Radioactivity was determined as counts per min (cpm) using a Trilux Microbeta plate scintillation counter (Perkin Elmer).

human PPARgama = biological target: T4, human PPARgama (Homo sapiens, UniProt P37231); experiment: human PPARgamma binding; settings: Supplementary Table 1
T4 sequence (P37231 1-505): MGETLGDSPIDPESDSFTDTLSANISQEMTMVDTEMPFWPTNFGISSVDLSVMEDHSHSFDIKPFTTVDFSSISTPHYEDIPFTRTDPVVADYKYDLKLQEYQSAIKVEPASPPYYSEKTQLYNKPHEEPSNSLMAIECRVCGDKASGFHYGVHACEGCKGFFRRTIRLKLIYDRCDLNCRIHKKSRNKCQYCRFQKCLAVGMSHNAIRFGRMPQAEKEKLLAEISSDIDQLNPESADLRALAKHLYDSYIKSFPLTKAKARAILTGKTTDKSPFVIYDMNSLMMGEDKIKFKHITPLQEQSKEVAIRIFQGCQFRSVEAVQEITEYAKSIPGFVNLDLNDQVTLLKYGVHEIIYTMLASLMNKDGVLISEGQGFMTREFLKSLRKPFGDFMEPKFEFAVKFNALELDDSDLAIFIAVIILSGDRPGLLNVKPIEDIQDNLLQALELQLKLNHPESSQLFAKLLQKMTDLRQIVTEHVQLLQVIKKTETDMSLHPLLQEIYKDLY

Rat GPR40 = Rat GPR40 (Rattus norvegicus, UniProt Q8K3T4); experiment: Rat GPR40 b-arrestin; assay type: cell-based
Sequence of Rat GPR40 (Q8K3T4 whole entry): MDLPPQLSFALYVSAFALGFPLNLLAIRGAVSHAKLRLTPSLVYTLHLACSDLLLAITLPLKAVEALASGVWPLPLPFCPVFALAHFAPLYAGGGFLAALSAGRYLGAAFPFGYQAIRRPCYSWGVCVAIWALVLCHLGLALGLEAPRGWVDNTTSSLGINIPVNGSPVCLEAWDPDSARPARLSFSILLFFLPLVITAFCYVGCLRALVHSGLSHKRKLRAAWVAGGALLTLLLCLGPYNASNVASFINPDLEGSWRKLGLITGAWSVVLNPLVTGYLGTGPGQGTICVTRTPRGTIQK

human GPR40 (A1 site) = biological target: T5, human GPR40 (A1 site) (Homo sapiens, UniProt O14842); experiment: A1 site radioligand binding with [3H]-TAK-875; settings: Supplementary Table 1
T5 construct: full length recombinant human GPR40 (GPR40) cDNA; expressed in transfected cells; host or cells: HEK 293, stably transfected; crude cell surface membranes
T5 sequence (O14842 whole entry): as the sequence (O14842 whole entry) above
Protocol: as §1
A1 Site Binding. 10 µL of compound diluted in 100% DMSO and 90 µL of Assay Buffer (50 mM Tris-HCl, pH 7.5, 5 mM CaCl2, 5 mM MgCl2, 0.1% w/v fatty acid-free BSA) were added to a deep 96-well polypropylene assay plate (Beckman Coulter).
as §2

human GPR40 [3] = biological target: T2, human GPR40; experiment: Human GPR40 IP1; assay type: cell-based
human PPARalpha = biological target: T6, human PPARalpha (Homo sapiens, UniProt Q07869); experiment: human PPARalpha binding; settings: Supplementary Table 1
T6 sequence (Q07869 1-468): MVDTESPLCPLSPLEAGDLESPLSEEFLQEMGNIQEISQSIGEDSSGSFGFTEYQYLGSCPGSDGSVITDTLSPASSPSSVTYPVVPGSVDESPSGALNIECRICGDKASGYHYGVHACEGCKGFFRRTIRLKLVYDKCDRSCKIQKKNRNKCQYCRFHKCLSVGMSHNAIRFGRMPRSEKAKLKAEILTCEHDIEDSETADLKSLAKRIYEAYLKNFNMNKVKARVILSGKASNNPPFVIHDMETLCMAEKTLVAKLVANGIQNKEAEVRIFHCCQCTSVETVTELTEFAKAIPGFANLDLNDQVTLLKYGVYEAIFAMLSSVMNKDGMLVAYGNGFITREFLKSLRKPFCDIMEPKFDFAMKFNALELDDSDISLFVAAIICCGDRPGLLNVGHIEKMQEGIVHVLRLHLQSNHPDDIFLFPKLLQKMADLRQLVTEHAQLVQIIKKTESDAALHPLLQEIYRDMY

human GPR40 [4] = biological target: T2, human GPR40; experiment: Human GPR40 b-arrestin; assay type: cell-based
human PPARdelta = biological target: T7, human PPARdelta (Homo sapiens, UniProt Q03181); experiment: human PPARdelta binding; settings: Supplementary Table 1
T7 sequence (Q03181 1-441): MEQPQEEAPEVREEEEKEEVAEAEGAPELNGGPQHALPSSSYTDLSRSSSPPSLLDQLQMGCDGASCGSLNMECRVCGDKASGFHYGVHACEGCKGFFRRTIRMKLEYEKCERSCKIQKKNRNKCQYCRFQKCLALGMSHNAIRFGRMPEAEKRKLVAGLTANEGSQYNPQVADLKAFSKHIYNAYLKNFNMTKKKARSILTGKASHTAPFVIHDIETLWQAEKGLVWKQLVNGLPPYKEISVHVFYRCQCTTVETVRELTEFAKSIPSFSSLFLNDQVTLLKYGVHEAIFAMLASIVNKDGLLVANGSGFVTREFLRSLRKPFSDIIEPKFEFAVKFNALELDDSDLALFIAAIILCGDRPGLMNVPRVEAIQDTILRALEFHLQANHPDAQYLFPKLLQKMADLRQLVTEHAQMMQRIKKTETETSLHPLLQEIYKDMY

Mouse GPR40 = Mouse GPR40 (Mus musculus, UniProt Q76JU9); experiment: Mouse GPR40 b-arrestin; assay type: cell-based
Sequence of Mouse GPR40 (Q76JU9 whole entry): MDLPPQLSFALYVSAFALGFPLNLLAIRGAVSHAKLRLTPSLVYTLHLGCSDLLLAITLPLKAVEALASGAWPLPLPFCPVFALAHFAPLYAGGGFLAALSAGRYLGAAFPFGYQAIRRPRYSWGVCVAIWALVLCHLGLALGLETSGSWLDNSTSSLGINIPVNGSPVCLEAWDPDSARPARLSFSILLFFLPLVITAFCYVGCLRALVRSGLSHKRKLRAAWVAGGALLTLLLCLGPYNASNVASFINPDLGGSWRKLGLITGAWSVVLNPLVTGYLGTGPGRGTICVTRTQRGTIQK

Human GPR120 [5] = biological target: T1, Human GPR120; experiment: Human GPR120 binding; settings: Supplementary Table 1
Mouse GPR120 = biological target: T8, Mouse GPR120 (Mus musculus, UniProt Q7TMA4); experiment: Mouse GPR120 b-arrestin; assay type: cell-based; settings: Supplementary Table 1
T8 sequence (Q7TMA4 1-361): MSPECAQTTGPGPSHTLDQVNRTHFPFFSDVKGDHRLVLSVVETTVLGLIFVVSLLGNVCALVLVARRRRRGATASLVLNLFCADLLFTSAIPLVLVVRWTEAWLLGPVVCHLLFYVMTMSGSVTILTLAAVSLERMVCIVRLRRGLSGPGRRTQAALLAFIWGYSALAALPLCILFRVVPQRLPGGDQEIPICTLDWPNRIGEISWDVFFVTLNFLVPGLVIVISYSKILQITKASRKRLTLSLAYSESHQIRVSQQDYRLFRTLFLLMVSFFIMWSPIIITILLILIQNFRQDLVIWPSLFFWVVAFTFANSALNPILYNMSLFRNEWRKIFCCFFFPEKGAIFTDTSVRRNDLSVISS

Human GPR120 [6] = biological target: T1, Human GPR120; experiment: Human GPR120 b-arrestin; assay type: cell-based; settings: Supplementary Table 1
[7] = tested on: GPR40 knock-out (KO) mice; experiment: IPGTT in GPR40 knock-out mice; assay type: in vivo, mouse; settings: high dose of compound 1
Protocol: Nine to ten week old male ICR mice (Envigo) and GPR40 KO mice (Taconic) were used. The day before an IPGTT (~1600), animals were fasted in clean cages. The following morning (~0800), animals were randomized on fasting glucose and body weight (N = 6 per group). Mice were orally administered a test article or vehicle 60 min prior to an intraperitoneal (IP) injection of glucose (2g/kg). Blood glucose levels were determined by a glucometer from tail bleeds taken at 0, 15, 30, 60, and 120 min after the glucose challenge. An average of two readings were reported at each time point. Also, blood samples were collected into serum tubes at 0, 3, 6, and 15 min post glucose injection for insulin measurement. Serum tubes were centrifuged at 3000g for 5 min and serum transferred into 96-well plates for insulin analysis by a Mesoscale rat/mouse insulin assay.

Compound	EC50 (Human GPR120 [1]) [nM]	EC50 (human GPR40 [2]) [nM]	Emax (human GPR40 [2]) [%]	Ki (human GPR40 (A2 site)) [nM]	Ki (human PPARgama) [nM]	EC50 (Rat GPR40) [nM]	Emax (Rat GPR40) [%]	Ki (human GPR40 (A1 site)) [nM]	EC50 (human GPR40 [3]) [nM]	Emax (human GPR40 [3]) [%]	Ki (human PPARalpha) [nM]	EC50 (human GPR40 [4]) [nM]	Emax (human GPR40 [4]) [%]	IC50 (human PPARdelta) [nM]	EC50 (Mouse GPR40) [nM]	Emax (Mouse GPR40) [%]	also measured
N[C@@H](CC(=O)N1CCn2c(nnc2C(F)(F)F)C1)Cc1cc(F)c(F)cc1F [sitagliptin, reference compound]																	blood glucose in OGTT, GPR40 KO (GPR40 KO mice): respond to glucose lowering
COc1ccc(F)c(-c2ccc(COc3cccc([C@@H](CC(=O)O)C4CC4)c3)cc2C2=CCCC2(C)C)c1 [AM-1638]	2870	1.7	98	1.4	> 10000	105	113	> 6910	0.25	197	3170	16	153	> 10000	22.7	112	Emax (Human GPR120 [1]): 63%
CC#C[C@@H](CC(=O)O)c1ccc(OCc2ccc(CN3CCC4(C=Cc5ccccc54)CC3)cc2)cc1 [LY2881835]	> 50000	9.1	62	> 3720	> 10000	2	124	4.7	1.24	162	> 10000	8.7	137	> 10000	0.8	133	Ki (Human GPR120 [5]): > 100000 nM; EC50 (Mouse GPR120): > 50000 nM; EC50 (Human GPR120 [6]): > 100000 nM
semaglutide [reference compound]																	glucose lowering in IPGTT, GPR40 KO [7]: can be triggered; insulin secretion in IPGTT, GPR40 KO [7]: can be triggered
